From ChEMBL document CHEMBL2331316, “Highly potent and selective cannabinoid receptor 2 agonists: initial hit optimization of an adamantyl hit series identified from high-through-put screening” (Bioorg Med Chem Lett, 2013)
pEC50, pKi: −log10 of the molar value. Converted amounts (≈) assume the structure as drawn.

Key:
[1] = Metabolic stability in human microsomes assessed as maximal achievable bioavailability; type: ADME, Microsome; conditions: read-out: Stability
[2] = Permeability, Pe of the compound assessed as drug accumulation; type: ADME; conditions: not told; read-out: permeability
[3] = Permeability, Pe of the compound; type: ADME; conditions: not told; read-out: permeability
[4] = Lipophilicity, log D of the compound; type: physicochemical; conditions: octanol/water
[5] = Solubility, of the compound by LYSA assay; type: physicochemical
Cannabinoid receptor 1 [6] = target: Cannabinoid receptor 1 (Mus musculus, UniProt P47746); assay: Agonist activity at mouse CB1 receptor by cAMP read-out assay; type: functional
Cannabinoid receptor 2 [7] = target: T1, Cannabinoid receptor 2 (Mus musculus, UniProt P47936); assay: Binding affinity to mouse CB2 receptor
Cannabinoid receptor 2 [8] = target: T2, Cannabinoid receptor 2 (Homo sapiens, UniProt P34972); assay: Binding affinity to human CB2 receptor
Cannabinoid receptor 2 [9] = target: Cannabinoid receptor 2 (Homo sapiens, UniProt P34972, Q63R); assay: Agonist activity at human CB2 receptor Q63R mutant
Cannabinoid receptor 2 [10] = target: T1, Cannabinoid receptor 2; assay: Agonist activity at mouse CB2 receptor by cAMP read-out assay; type: functional
Cannabinoid receptor 1 [11] = target: T3, Cannabinoid receptor 1 (Homo sapiens, UniProt P21554); assay: Agonist activity at human CB1 receptor by cAMP read-out assay; type: functional
Cannabinoid receptor 2 [12] = target: T2, Cannabinoid receptor 2; assay: Agonist activity at human CB2 receptor by beta-arrestin recruitment assay
Cannabinoid receptor 2 [13] = target: T2, Cannabinoid receptor 2; assay: Agonist activity at human CB2 receptor by cAMP read-out assay; type: functional
Cannabinoid receptor 1 [14] = target: T3, Cannabinoid receptor 1; assay: Binding affinity to CB1 receptor (unknown origin)
Cannabinoid receptor 2 [15] = target: T2, Cannabinoid receptor 2; assay: Binding affinity to CB2 receptor (unknown origin)

T1 sequence (P47936 whole entry): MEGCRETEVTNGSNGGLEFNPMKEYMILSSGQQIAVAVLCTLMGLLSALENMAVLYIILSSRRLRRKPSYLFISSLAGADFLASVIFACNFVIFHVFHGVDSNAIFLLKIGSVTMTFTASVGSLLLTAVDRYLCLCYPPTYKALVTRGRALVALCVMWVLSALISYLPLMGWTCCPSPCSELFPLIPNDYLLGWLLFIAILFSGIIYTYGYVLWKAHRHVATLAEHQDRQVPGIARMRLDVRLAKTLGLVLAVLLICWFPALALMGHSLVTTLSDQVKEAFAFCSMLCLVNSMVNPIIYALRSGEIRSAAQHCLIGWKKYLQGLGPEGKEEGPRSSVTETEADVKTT
T2 sequence (P34972 whole entry): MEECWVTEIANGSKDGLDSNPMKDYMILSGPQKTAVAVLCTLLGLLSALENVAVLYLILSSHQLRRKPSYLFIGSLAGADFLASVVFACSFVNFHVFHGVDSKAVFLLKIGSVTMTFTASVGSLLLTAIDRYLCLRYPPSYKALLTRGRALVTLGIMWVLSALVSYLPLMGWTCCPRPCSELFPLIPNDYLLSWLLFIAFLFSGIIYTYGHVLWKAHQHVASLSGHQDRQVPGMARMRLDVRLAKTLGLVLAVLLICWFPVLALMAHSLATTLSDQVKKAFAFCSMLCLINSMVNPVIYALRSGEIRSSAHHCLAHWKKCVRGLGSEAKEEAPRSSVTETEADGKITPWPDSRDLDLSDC
Cannabinoid receptor 2 (Homo sapiens, UniProt P34972, Q63R), sequence (P34972 whole entry Q63R): as the sequence (P34972 whole entry) above, with Q63R counted along it
T3 sequence (P21554 whole entry): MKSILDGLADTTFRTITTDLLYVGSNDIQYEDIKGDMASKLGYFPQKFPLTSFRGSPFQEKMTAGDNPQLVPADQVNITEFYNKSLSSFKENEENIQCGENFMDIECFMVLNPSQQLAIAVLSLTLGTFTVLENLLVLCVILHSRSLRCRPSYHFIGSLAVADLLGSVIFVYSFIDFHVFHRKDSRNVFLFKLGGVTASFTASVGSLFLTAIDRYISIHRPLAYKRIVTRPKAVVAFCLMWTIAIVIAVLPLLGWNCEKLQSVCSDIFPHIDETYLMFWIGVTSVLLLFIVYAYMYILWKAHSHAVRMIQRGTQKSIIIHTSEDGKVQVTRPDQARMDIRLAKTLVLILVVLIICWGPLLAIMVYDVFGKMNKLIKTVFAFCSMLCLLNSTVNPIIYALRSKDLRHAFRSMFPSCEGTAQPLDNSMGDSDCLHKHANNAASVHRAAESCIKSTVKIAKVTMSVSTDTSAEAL
Cannabinoid receptor 1 (Mus musculus, UniProt P47746), sequence (P47746 whole entry): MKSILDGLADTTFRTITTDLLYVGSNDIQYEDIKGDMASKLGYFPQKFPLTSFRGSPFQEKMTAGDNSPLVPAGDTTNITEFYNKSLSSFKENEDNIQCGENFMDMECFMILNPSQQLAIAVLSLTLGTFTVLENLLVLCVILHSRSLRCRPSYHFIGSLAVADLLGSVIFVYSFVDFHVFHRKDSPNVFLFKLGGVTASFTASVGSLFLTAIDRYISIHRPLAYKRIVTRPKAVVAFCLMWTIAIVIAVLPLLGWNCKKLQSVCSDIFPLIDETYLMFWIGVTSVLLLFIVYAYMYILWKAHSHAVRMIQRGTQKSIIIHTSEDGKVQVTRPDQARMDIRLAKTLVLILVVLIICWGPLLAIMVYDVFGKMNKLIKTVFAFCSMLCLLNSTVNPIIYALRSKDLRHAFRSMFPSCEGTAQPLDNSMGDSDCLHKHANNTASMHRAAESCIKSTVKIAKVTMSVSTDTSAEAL

SMILES	Fh [1] [%]	Papp [2] [×10⁻⁶ cm/s]	Papp [3] [×10⁻⁶ cm/s]	logD [4]	solubility [5] [µg/mL]	pEC50 (Cannabinoid receptor 1 [6])	pKi (Cannabinoid receptor 2 [7])	pKi (Cannabinoid receptor 2 [8])	pEC50 (Cannabinoid receptor 2 [9])	pEC50 (Cannabinoid receptor 2 [10])	pEC50 (Cannabinoid receptor 1 [11])	pEC50 (Cannabinoid receptor 2 [12])	pEC50 (Cannabinoid receptor 2 [13])	pKi (Cannabinoid receptor 1 [14])	pKi (Cannabinoid receptor 2 [15])
COCCOC1CCN(C(=O)C23CC4CC(CC(C4)C2)C3)c2ccccc21 (stereo not given)	5	5.7	4.4	3.82	97 (≈ 263 µM)	< 5.00	5.82	6.46	7.62	7.70	< 5.00	6.05	7.70	–	–
O=C(N1CCc2ccccc21)C12CC3CC(CC1C3)C2	55	0.5	1.9	3.7	< 1	< 5.00	< 5.00	6.30	–	7.29	< 5.00	6.05	7.66	–	–
CCOC(=O)c1ccccc1NC(=O)C12CC3CC(CC(C3)C1)C2	–	–	–	–	–	–	–	–	–	–	< 5.00	7.12	7.82	–	–
O=C(NC12CC3CC(CC(C3)C1)C2)N1Cc2ccccc2C1	37	26	12	4.26	< 1	< 5.00	6.40	6.57	7.57	7.72	< 5.00	6.15	–	–	–
O=C(NC12CC3CC(CC(C3)C1)C2)c1nn(CCN2CCOCC2)c2ccccc12	–	–	–	–	–	–	–	–	–	–	–	–	–	8.17	9.82
O=C(N1Cc2ccccc2C1)C12CC3CC(CC(C3)C1)C2	51	14	0.5	–	< 1	< 5.00	6.05	6.30	–	8.15	< 5.00	6.22	–	–	–
CCOC1CCN(C(=O)C23CC4CC(CC(C4)C2)C3)c2ccccc21 (stereo not given)	6	0.9	0.7	4.09	17 (≈ 50.1 µM)	5.30	< 5.00	6.00	–	7.55	< 5.00	–	8.74	–	–
Cc1cccc2c1CCN2C(=O)C12CC3CC(CC(C3)C1)C2	46	–	–	–	< 1	< 5.00	5.89	6.77	7.96	8.15	< 5.00	6.54	8.40	–	–
CC1(C)CN(C(=O)C23CC4CC(CC(C4)C2)C3)c2ccccc21	39	–	–	–	< 1	< 5.00	5.31	6.30	7.44	7.40	< 5.00	6.05	7.80	–	–
CC(=O)c1ccccc1NC(=O)C12CC3CC(CC(C3)C1)C2	–	–	–	–	–	–	–	–	–	–	< 5.00	–	7.00	–	–
Cc1csc(NC(=O)C23CC4CC(CC(C4)C2)C3)n1	–	–	–	–	–	–	–	–	–	–	< 5.00	6.05	6.22	–	–
O=C(N1CCCCc2ccccc21)C12CC3CC(CC(C3)C1)C2	–	–	–	–	–	–	–	–	–	< 5.00	–	–	< 5.00	–	–
O=C(N1CCCc2ccccc21)C12CC3CC(CC(C3)C1)C2	23	–	–	–	< 1	< 5.00	5.37	6.10	7.26	6.90	< 5.00	< 5.00	–	–	–
O=C(N1CCc2ccc(C(F)(F)F)cc21)C12CC3CC(CC(C3)C1)C2	36	–	–	–	< 1	< 5.00	5.55	5.60	7.31	8.54	< 5.00	6.12	7.82	–	–
CN1CCN(C(=O)C23CC4CC(CC(C4)C2)C3)c2ccccc21	10	–	–	4.09	< 1	< 5.00	5.55	6.30	7.15	7.66	< 5.00	< 5.00	7.54	–	–
O=C(N1CCc2ccccc21)C12CC3CC(CC(C3)C1)C2	45	2	0.4	–	< 1	< 5.00	< 5.00	6.34	–	7.59	< 5.00	6.66	–	–	–
Cc1cccc2c1N(C(=O)C13CC4CC(CC(C4)C1)C3)CC2	51	–	–	–	< 1	< 5.00	< 5.00	6.22	7.09	7.30	< 5.00	5.80	7.26	–	–
COC(=O)c1cccc(NC(=O)C23CC4CC(CC(C4)C2)C3)c1	–	–	–	–	–	–	–	–	–	–	< 5.00	–	< 5.00	–	–
O=C(C1C2CC3CC(C2)CC1C3)N1CCc2ccccc21 (stereo not given)	37	5	0.1	–	< 1	< 5.00	5.66	6.49	7.96	7.70	< 5.00	6.80	8.15	–	–
COC1CCN(C(=O)C23CC4CC(CC(C4)C2)C3)c2ccccc21 (stereo not given)	12	4.6	3.3	3.79	10 (≈ 30.7 µM)	< 5.00	5.28	6.11	7.11	7.64	< 5.00	5.89	–	–	–
O=C(N1CCc2cc(F)ccc21)C12CC3CC(CC(C3)C1)C2	52	4.7	2.3	–	< 1	< 5.22	5.62	6.70	–	8.05	< 5.00	6.70	–	–	–
O=C(NC(=S)N1CCCCC1)C12CC3CC(CC(C3)C1)C2	–	–	–	–	–	–	–	–	–	–	< 5.00	6.30	5.85	–	–
CCOc1ccc(NC(=O)C23CC4CC(CC(C4)C2)C3)cc1	–	–	–	–	–	–	–	–	–	–	< 5.00	–	5.92	–	–
O=C(N1CCc2ccccc21)C12CC3CC(CC(O)(C3)C1)C2	90	25	10.3	2.77	> 318	–	–	–	6.27	6.00	< 5.00	5.59	–	–	–
